Assay results taken from PubChem BioAssay (NCI).
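Where inhibition never reached the appropriate level, the endpoint shown equals the highest concentration tested. Otherwise, values were interpolated linearly from a five-concentration, 48-hour dose response in 96-well plates. TGI: total growth inhibition.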

How the values were obtained:
Test in all cases: inhibition of tumour cell growth, NCI panel, 48 h
MDA-MB-231 breast = test system: MDA-MB-231 breast
HT29 colon = test system: HT29 colon
NCI-H460 lung = test system: NCI-H460 lung
MCF7 breast = test system: MCF7 breast
MOLT-4 leukemia = test system: MOLT-4 leukemia
SF-268 CNS = test system: SF-268 CNS
BT-549 breast = test system: BT-549 breast
786-0 renal = test system: 786-0 renal
LOX IMVI melanoma = test system: LOX IMVI melanoma
OVCAR-3 ovarian = test system: OVCAR-3 ovarian
KM12 colon = test system: KM12 colon
HCT-116 colon = test system: HCT-116 colon
SK-MEL-5 melanoma = test system: SK-MEL-5 melanoma
NCI-H226 lung = test system: NCI-H226 lung
SNB-19 CNS = test system: SNB-19 CNS
COLO 205 colon = test system: COLO 205 colon
M14 melanoma = test system: M14 melanoma
UACC-257 melanoma = test system: UACC-257 melanoma

Row | Structure (SMILES) | TGI (MDA-MB-231 breast) [µM] | TGI (HT29 colon) [µM] | TGI (NCI-H460 lung) [µM] | TGI (MCF7 breast) [µM] | TGI (MOLT-4 leukemia) [µM] | TGI (SF-268 CNS) [µM] | TGI (BT-549 breast) [µM] | TGI (786-0 renal) [µM] | TGI (LOX IMVI melanoma) [µM] | TGI (OVCAR-3 ovarian) [µM] | TGI (KM12 colon) [µM] | TGI (HCT-116 colon) [µM] | TGI (SK-MEL-5 melanoma) [µM] | TGI (NCI-H226 lung) [µM] | TGI (SNB-19 CNS) [µM] | TGI (COLO 205 colon) [µM] | TGI (M14 melanoma) [µM] | TGI (UACC-257 melanoma) [µM]
1 | O=C1C=CC(=O)c2c(O)c(NCCN3CCOCC3)c(Cl)c(O)c21 | 6.43 | 4.7 | 3.3 | 2.96 | 3.89 | 6.12 | 3.98 | 5.47 | 2.85 | 7.26 | > 10 | 3.17 | 2.35 | > 10 | 3.23 | 3.01 | 3.64 | 4.56
2 | CC(C)CC(C#CCCOC(=O)c1ccccc1)OC(=O)c1ccccc1 (stereo not drawn) | > 10 | > 10 | > 10 | > 10 | > 10 | > 10 | > 10 | > 10 | > 10 | > 10 | > 10 | > 10 | > 10 | > 10 | > 10 |  | > 10 | > 10
3 | C/C1=C\[C@@H](C)C[C@@H](C)OC(=O)[C@@H](C)NC(=O)[C@H](Cc2ccc(O)c(Br)c2)N(C)C(=O)CNC(=O)[C@H](C)C1 | 5.34 | > 100 | > 69.1 | > 100 | > 64.1 | 1.89 | 2.16 | 5.84 | < 0.01 | 0.0243 | > 100 | > 55.2 | > 52.8 |  | > 100 | > 100 | > 100 | 27.2
4 | CS(=O)(=O)c1ccc(C(=O)O[C@@H]2C(=O)N3CC[C@H]4OC(O)[C@@H]2[C@H]43)cc1 (stereo partly drawn) | > 100 | > 100 | > 100 | > 100 | > 100 | > 100 | > 100 | > 100 | > 100 | > 100 | > 100 | > 100 | > 100 | > 100 | > 100 | > 100 | > 100 | > 100
5 | Cc1cn(CCCCOC(=O)NC(CCCN=C(N)N)C(=O)O)c(=O)[nH]c1=O (stereo not drawn) | > 100 | > 100 | > 100 | > 100 | > 100 | > 100 | > 100 | > 100 | > 100 | > 100 | > 100 | > 100 |  | > 100 | > 100 | > 100 | > 100 | > 100
6 | CCCCCCCCCCCCCC(=O)OCC(CCS(=O)(=O)O[C@H]1CC[C@@]2(C)C(=CC[C@@H]3C2CC[C@]2(C)C(=O)CCC32)C1)OC(=O)CCCCCCCCCCCCC (stereo partly drawn) | > 100 | > 100 | > 100 | > 100 |  | > 100 | > 100 | > 100 | > 100 | > 100 | > 100 | > 100 | > 100 |  | > 100 | > 100 | > 100 | > 100
